Laboratory results: patent US20250152720A1, “NEW CARBOHYDRATE DERIVATIVES AS MIMETICS OF BLOOD GROUP A AND B ANTIGENS” (REMAB THERAPEUTICS SL, priority 2022, published 2025)

How the values were obtained:
[1] = test system: purified anti-B antibodies binding to red blood cells (Group B); assay: Flow Cytometry inhibition of binding of purified anti-B antibodies to red blood cells (Group B) (Example 6.4); assay type: cell-based, human; conditions: anti-B 1 μg/mL
Experimental: The capacity to inhibit the binding of purified anti-B antibodies to red blood cells (Group B), measured by Flow Cytometry was tested. The Flow Cytometry assay was performed as follows: […] Afterwards, primary antibodies with the corresponding inhibitor were added. […] The samples were then incubated for 30 minutes at 37° C. (in the dark, mild horizontal shaking 30-40 rpm). Afterwards the samples were washed twice with PBS (centrifuged at 300 g. 3 minutes), and the supernatants were removed by aspiration. Then, 50 μL of the corresponding fluorochrome secondary anti-Ig antibody (7.5 μg/mL of goat anti-human IgG Alexa Fluor 647. Jackson Immunoresearch, West Grove, PA, USA, and 20 μg/mL of goat anti-human IgM C[…], Sigma-Aldrich, St. Louis, MO, USA) diluted in PBS were added to the RBC and incubated for 35 minutes at 37° C. (in the dark). The samples were washed twice with PBS (centrifuged at 300 g, 3 minutes), and the supernatants were removed by aspiration. Finally, the cells were resuspended in filtered PBS. Cells incubated with only PBS were used as a negative control for the experiment. Cells incubated only with secondary antibodies were considered background signals. Flow Cytometry analysis was performed on a Beckman Coulter Gallios Flow Cytometry analyzer using the blue (488 nm-22 mW) and red (635 nm-25 mW) solid-state laser as exciting source. Every single FACS determination recorded about 20,000 total events. Data was analyzed with KALUZA software (Beckman Coulter, CA, USA). The inhibitory capacity was expressed as a percentage of removal referred to the baseline condition (in ordinates).

[2] = test system: purified human anti-B antibodies (IgG, IgM); conditions: IgG 0,095 ug/mL and IgM 0.045 ug/mL; increasing glycoconjugate concentrations (0-400 μg/mL); versus Comparative-1; FIG. 11
Experimental: (§1) ELISA: Maxisorp 96-well flat-bottom plates (Thermo Scientific, Waltham, MA, US) were coated for 18 hours at 4° C. with 50 μL/well of 10 μg/mL of the following PAA-glycoconjugates (as disclosed above in Table 3): 1 (B natural type2) and 5 (A natural type2); in coating buffer (0.05 M carbonate-bicarbonate, pH 9.6). Wells coated only with 50 μL/well of 10 μg/mL of PAA were considered the background of each sample assessed. After coating, the plates were washed three times with 200 μL/well of 0.1% (v/v) PBST using an autowasher and blocked for 1 hour at 4° C. with 100 μL/well of 0.1% (v/v) PBST+1% (w/v) BSA. Washing steps were repeated.
The inhibition samples were prepared in separate tubes using a fixed concentration of anti-A or anti-B antibodies, and an increasing concentration of the following polylysine glycoconjugate inhibitors, prepared in Example 4 (0-400 μg/mL): • Comparative-1 (comprising natural B type-II antigen) • Example 4.1 (comprising analogue of Example 1.1) • Comparative-2 (comprising natural A type-II antigen) • Example 4.8 (comprising analogue of Example 1.8) […]
(§2) After washing steps, plates were incubated for 0.5 hours at 25° C. […] The reaction was stopped with 50 μL/well of 3N HCl, and the resulting absorbance was registered at 490 nm using a microplate reader.
The percentage of removal (%) was calculated referred to the baseline condition (without inhibitor compound). […]

[3] = test system: purified human anti-A antibodies (IgG, IgM); conditions: IgG 0.075 ug/mL and IgM 0.185 ug/mL; glycoconjugate at 10, 100 and 400 μg/mL; versus Comparative-2; FIG. 10
Experimental: as §1
The tubes were incubated for 18 hours at 4° C. and then a convenient dilution of inhibition mix to the ELISA plate (50 μL/vell) was added and incubated for 0.5 hours at 25° C. in a rocker.
as §2
To quantify the antibody levels. […]
The percentage of removal (%) was calculated referred to the baseline condition (without inhibitor compound).

Substance: Polylysine DP1000 Conjugate with Galα1-3(Fucα1-2)Galβ1-4GlcNAcβB (Type2) Tetrasaccharide [Comparative-1, reference compound]
- percentage of removal referred to the baseline condition, IgG ([1]; inhibitor 0.25 ug/mL): 15.12%
- percentage of removal referred to the baseline condition, IgM ([1]; inhibitor 0.25 ug/mL): 26.4%

Substance: Polyfysine DP1000 conjugate with tetrasaccharide Glcα1-3(Fucα1-2)Galβ1-4GlcNAcβ (Example 1.1) (25%) [Example 4.1]
- capacity to inhibit human purified anti-B antibodies (percentage of removal) [2]: lower capacity to inhibit human purified anti-B antibodies than the natural comparator
- percentage of removal referred to the baseline condition, IgG ([1]; inhibitor 2.5 ug/mL): 5.64%
- percentage of removal referred to the baseline condition, IgM ([1]; inhibitor 2.5 ug/mL): 6.35%

Substance: Polylysine DP1000 Conjugate with Trisaccharide GlcNAcα1-3(Fucα1-2)Galβ (Example 1.8) (25%) [Example 4-8]
- capacity to inhibit human purified anti-A antibodies (percentage of removal) [3]: higher capacity to inhibit human purified anti-A antibodies than the comparator
